Reference: ChEMBL document CHEMBL4627268, “Development of a potent and orally active activator of adenosine monophosphate-activated protein kinase (AMPK), ASP4132, as a clinical candidate for the treatment of human cancer” (Bioorg Med Chem, 2020)

Assays:
[1] = Intrinsic clearance in human liver microsomes at 0.1 to 0.2 umol/L incubated for 30 mins in presence of NADPH by LC-MS/MS analysis; assay type: ADME, Microsome; settings: read-out: CLH
[2] = Total clearance in Sprague-Dawley rat at 1 mg/kg, iv by LC-MS/MS analysis; assay type: ADME, organism-based; settings: in vivo
[3] = Cmax in Sprague-Dawley rat at 1 mg/kg, po by LC-MS/MS analysis; assay type: ADME, organism-based; parameters: dose 1 mg/kg, route oral; settings: in vivo
[4] = AUC (0 to 24 hrs) in Sprague-Dawley rat at 1 mg/kg, po by LC-MS/MS analysis; assay type: ADME, organism-based; parameters: time < 24 hr, dose 1 mg/kg, route oral; settings: in vivo
[5] = Volume of distribution at steady state in Sprague-Dawley rat at 1 mg/kg, iv by LC-MS/MS analysis; assay type: ADME, organism-based; settings: in vivo, read-out: Vdss
[6] = Drug metabolism in Sprague-Dawley rat hepatocytes assessed as esterase-mediated anilide hydrolysis; assay type: ADME, cell-based; settings: isolated protein
[7] = Elimination half-life in Sprague-Dawley rat at 1 mg/kg, iv by LC-MS/MS analysis; assay type: ADME, organism-based; settings: in vivo, read-out: beta t1/2 (converted)
[8] = Tmax in Sprague-Dawley rat at 1 mg/kg, po by LC-MS/MS analysis; assay type: ADME, organism-based; settings: in vivo
[9] = Oral bioavailability in Sprague-Dawley rat at 1 mg/kg by LC-MS/MS analysis; assay type: ADME, organism-based; settings: in vivo
[10] = AUC (0 to 24 hrs) in Sprague-Dawley rat at 1 mg/kg, iv by LC-MS/MS analysis; assay type: ADME, organism-based; parameters: time < 24 hr, dose 1 mg/kg, route intravenous; settings: in vivo

SMILES	CLint scaled [1]	clearance [2]	Cmax [3]	AUC(0-t) at 24 h [4]	Vd [5]	Drug metabolism [6]	half-life [7]	Tmax [8]	bioavailability [9]	AUC(0-t) at 24 h [10]
COc1ccc(CN2CCN(C(=O)Nc3ccc(C(=O)N4CCN(Cc5ccc(C(F)(F)F)cc5)CC4)cc3)CC2)cc1	185 mL/min/kg									
O=C(Nc1ccc(C(=O)N2CCN(Cc3ccc(C(F)(F)F)cc3)CC2)cc1)N1CCN(Cc2ccc(C(F)(F)F)cc2)CC1	158 mL/min/kg									
COc1ccc(CN2CCC(C(=O)Nc3ccc(C(=O)N4CCN(Cc5ccc(C(F)(F)F)cc5)CC4)cc3)CC2)cn1	77 mL/min/kg	137 mL/min/kg	1.9 ng/mL	13.3 ng·h/mL	50.9 L/kg	Metabolite_Detected	3.5 h	0.5 h	11%	123 ng·h/mL
COc1ccc(CN2CCC(c3ccc4[nH]c(C(=O)N5CCN(Cc6ccc(C(F)(F)F)cc6)CC5)nc4c3)CC2)cn1.Cc1ccc(S(=O)(=O)O)cc1.Cc1ccc(S(=O)(=O)O)cc1	61 mL/min/kg	19 mL/min/kg	72 ng/mL	705 ng·h/mL	4.6 L/kg		3.6 h	1.7 h	80%	887 ng·h/mL
